Patent publication EP1889831A2, “Diazenedicarboxamides as inhibitors of D-alanine: D-alanine ligase (Ddl)” (University of Ljubljana, priority 2006, dated 2008)
pIC50: −log10 of the molar value. ≈ marks a conversion by molar mass, not a printed value.

Key:
DdlB = DdlB (Escherichia coli, UniProt P07862); assay: Determination of inhibitory activity on DdlB (colorimetric malachite green method); type: biochemical, E. coli; details: 37 °C, 700 µM D-Ala, 500 µM ATP, 30 min incubation, seven inhibitor concentrations
Method: The D-Ala-adding activity of DdlB ligase was monitored by the detection of orthophosphate generated during the reaction based on the colorimetric malachite green method (Walsh, A. et al. J Bacteriol. 1999, 181: 5395). […] All compounds were soluble in the assay mixture containing 5% DMSO. After 30 min of incubation, 100 µL Biomol® reagent was added. After 5 min, absorbance was read at 650 nm. Residual activity was calculated with respect to a similar assay without inhibitor. IC50 constants were determined by measuring residual activity at seven different inhibitor concentrations and represent the concentration of inhibitors where RA is 50%.

S.aureus 8325-4 = assay: Determination of antimicrobial activity (MIC, broth microdilution); type: cell-based; details: IsoSensitest broth, inoculum 10^6 cells per mL, 16 h at 37 °C; unit assumed
Method: (§1) Minimal inhibitory concentrations (MICs) of compounds were determined by broth microdilution in IsoSensitest broth (Oxoid, Basingstoke, UK) using an inoculum of 10^4 cells per mL for E. coli or 10^6 cells per mL for S. aureus. The compounds under investigation were prepared in a 2-fold dilution series in 50% dimethyl sulfoxide (Sigma-Aldrich, Dorset, UK). Microwell plates with 96 wells (Nunc, Fisher Scientific, Loughborough, UK) containing the antimicrobial agent and bacterial suspension were incubated for 16 h at 37 °C in a Spectramax 384 plus microwell plate reader (Molecular Devices, Abingdon, UK), running SOFTmax PRO 3.1.1 software. Optical density readings (600 nm) were taken at 10 min intervals. Plates were shaken for 30 s before each reading. The MIC was taken as the lowest concentration of antimicrobial agent that prevented growth. The invention is further described in connection with the following non-limiting examples: […]

E.coli 1411 = assay: as above; type: cell-based; details: IsoSensitest broth, inoculum 10^4 cells per mL, 16 h at 37 °C; unit assumed
Method: as §1

E.coli SM 1411 = assay: as above; type: cell-based; details: IsoSensitest broth, inoculum 10^4 cells per mL, 16 h at 37 °C; unit assumed
Method: as §1

Compound	pIC50 (DdlB)	MIC S.aureus 8325-4 (S.aureus 8325-4)	MIC E.coli 1411 (E.coli 1411)	MIC E.coli SM 1411 (E.coli SM 1411)
O=C(/N=N/C(=O)NCCCl)NCCCl	3.88	> 256 µg/mL	> 256 µg/mL	> 256 µg/mL
O=C(N=NC(=O)Nc1ccccc1)NCc1ccccn1	3.95	64 µg/mL (≈ 226 µM)	64 µg/mL (≈ 226 µM)	64 µg/mL (≈ 226 µM)
O=C(N=NC(=O)NCc1cccnc1)NCc1cccnc1	3.91	> 256 µg/mL	> 256 µg/mL	> 256 µg/mL
O=C(N=NC(=O)Nc1cccc(Cl)c1)NCc1cccnc1	4.82	256 µg/mL (≈ 806 µM)	64 µg/mL (≈ 201 µM)	64 µg/mL (≈ 201 µM)
CCC(C)c1ccc(NC(=O)N=NC(=O)NCCCl)cc1 (stereo not shown)	4.60	> 256 µg/mL	> 256 µg/mL	> 256 µg/mL
O=C(N=NC(=O)NCC(Cl)(Cl)Cl)NCC(Cl)(Cl)Cl	3.73	> 256 µg/mL	> 256 µg/mL	> 256 µg/mL
O=C(N=NC(=O)NCc1ccccn1)NCc1ccccn1	3.80	> 256 µg/mL	> 256 µg/mL	> 256 µg/mL
CC(C)(C)c1ccc(NC(=O)N=NC(=O)NCCCl)cc1	4.43	> 256 µg/mL	> 256 µg/mL	> 256 µg/mL
CC(NC(=O)N=NC(=O)Nc1ccccc1)c1ccccc1 (stereo not shown)	4.39	> 256 µg/mL	> 256 µg/mL	> 256 µg/mL
O=C(N=NC(=O)Nc1ccccc1)NCc1cccnc1 [drawing 18]	4.12	> 256 µg/mL	> 256 µg/mL	> 256 µg/mL
O=C(N=NC(=O)NCc1ccccn1)NCCCl	3.92	> 256 µg/mL	> 256 µg/mL	> 256 µg/mL
O=C(N=NC(=O)Nc1ccccc1)NCc1cccnc1 [drawing 22]	4.44	128 µg/mL (≈ 452 µM)	64 µg/mL (≈ 226 µM)	64 µg/mL (≈ 226 µM)
CC(C)c1ccc(NC(=O)N=NC(=O)NCCCl)cc1	4.31	> 256 µg/mL	> 256 µg/mL	> 256 µg/mL
